From ChEMBL document CHEMBL6092148, “Design, preparation and biological evaluation of new Rociletinib-inspired analogs as irreversible EGFR inhibitors to treat non-small-cell-lung cancer” (Bioorg Med Chem, 2024) come the findings set out here.

The target of data set [1] is T1, Epidermal growth factor receptor (Homo sapiens, UniProt P00533).
Description: Inhibition of wild type EGFR (unknown origin) using poly (Glu:Tyr) as substrate incubated for 1 hr in presence of ATP by ADP-glo kinase assay
Data set [2] can be described thus: physchem. Particulars: 1-octanol/PBS, pH 7.4.
Data set [3] addresses Epidermal growth factor receptor (Homo sapiens, UniProt P00533, L858R/T790M).
Data set [4] is described as follows: Aqueous solubility of the compound in PBS buffer at PH 7.4 measured after 6 hrs by HPLC-UV analysis. Format: physicochemical. The following applies: pH 7.4, 6 h.
Data set [5] concerns A-431. Briefly: cells. The following applies: Homo sapiens, A-431, 72 h.
In data set [6] the test system is HepG2. As to the kind of experiment: cells. Particulars: Homo sapiens, HepG2, 72 h.
The nature of data set [7]: in vitro. Particulars: human, HepG2 cells and A549 cells.
Description: Selectivity index, ratio of IC50 for human HepG2 cells to IC50 for human A549 cells
Data set [8] has as its system A549. As to the kind of experiment: cells. Particulars: Homo sapiens, A549, 72 h.
Data set [9] concerns the target T1, Epidermal growth factor receptor. Briefly: Potency index, ratio of rociletinib IC50 to test compound IC50 for inhibition of wild type EGFR (unknown origin).
Data set [10] addresses T2, Tyrosine-protein kinase JAK3 (Homo sapiens, UniProt P52333).
T2 sequence (P52333 whole entry): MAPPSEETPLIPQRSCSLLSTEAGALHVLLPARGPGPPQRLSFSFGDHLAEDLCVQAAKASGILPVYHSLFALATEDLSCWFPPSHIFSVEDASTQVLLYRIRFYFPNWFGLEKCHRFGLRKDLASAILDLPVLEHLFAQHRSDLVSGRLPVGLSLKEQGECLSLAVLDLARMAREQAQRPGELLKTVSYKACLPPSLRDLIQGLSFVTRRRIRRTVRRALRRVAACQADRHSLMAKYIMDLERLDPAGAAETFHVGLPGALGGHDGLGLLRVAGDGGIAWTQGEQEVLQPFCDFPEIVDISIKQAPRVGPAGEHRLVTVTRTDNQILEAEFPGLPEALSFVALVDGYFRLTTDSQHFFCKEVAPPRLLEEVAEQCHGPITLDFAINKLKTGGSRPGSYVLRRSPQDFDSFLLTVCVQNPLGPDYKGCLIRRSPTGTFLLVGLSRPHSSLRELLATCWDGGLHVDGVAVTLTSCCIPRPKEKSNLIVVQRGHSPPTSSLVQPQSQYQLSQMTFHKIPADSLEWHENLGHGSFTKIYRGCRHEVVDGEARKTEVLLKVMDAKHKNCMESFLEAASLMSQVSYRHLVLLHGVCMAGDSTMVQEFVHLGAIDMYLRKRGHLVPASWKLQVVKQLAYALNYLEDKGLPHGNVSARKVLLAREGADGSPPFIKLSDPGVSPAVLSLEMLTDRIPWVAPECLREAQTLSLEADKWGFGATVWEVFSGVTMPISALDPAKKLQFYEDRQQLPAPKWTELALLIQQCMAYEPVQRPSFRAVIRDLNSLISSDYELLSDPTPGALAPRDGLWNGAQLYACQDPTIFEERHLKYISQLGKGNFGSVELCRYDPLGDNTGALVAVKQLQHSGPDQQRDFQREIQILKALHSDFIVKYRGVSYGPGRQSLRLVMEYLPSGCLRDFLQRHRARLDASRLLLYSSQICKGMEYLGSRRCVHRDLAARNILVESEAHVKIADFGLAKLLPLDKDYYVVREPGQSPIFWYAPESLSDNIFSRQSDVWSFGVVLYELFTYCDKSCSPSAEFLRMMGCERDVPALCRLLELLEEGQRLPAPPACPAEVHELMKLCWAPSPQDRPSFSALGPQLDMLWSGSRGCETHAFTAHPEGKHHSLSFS
Description: Inhibition of JAK3 (unknown origin) using poly (Glu:Tyr) as substrate incubated for 1 hr in presence of ATP by ADP-glo kinase assay

For data set [11], the target named is T1, Epidermal growth factor receptor. As to the kind of experiment: Binding affinity to wild type EGFR (unknown origin) assessed as inhibition constant.
Data set [12] has the same target. The source holds these as a separate data set.
Description: Irreversible inhibition of wild type EGFR (unknown origin) assessed as inactivation constant

T1 sequence (P00533 whole entry): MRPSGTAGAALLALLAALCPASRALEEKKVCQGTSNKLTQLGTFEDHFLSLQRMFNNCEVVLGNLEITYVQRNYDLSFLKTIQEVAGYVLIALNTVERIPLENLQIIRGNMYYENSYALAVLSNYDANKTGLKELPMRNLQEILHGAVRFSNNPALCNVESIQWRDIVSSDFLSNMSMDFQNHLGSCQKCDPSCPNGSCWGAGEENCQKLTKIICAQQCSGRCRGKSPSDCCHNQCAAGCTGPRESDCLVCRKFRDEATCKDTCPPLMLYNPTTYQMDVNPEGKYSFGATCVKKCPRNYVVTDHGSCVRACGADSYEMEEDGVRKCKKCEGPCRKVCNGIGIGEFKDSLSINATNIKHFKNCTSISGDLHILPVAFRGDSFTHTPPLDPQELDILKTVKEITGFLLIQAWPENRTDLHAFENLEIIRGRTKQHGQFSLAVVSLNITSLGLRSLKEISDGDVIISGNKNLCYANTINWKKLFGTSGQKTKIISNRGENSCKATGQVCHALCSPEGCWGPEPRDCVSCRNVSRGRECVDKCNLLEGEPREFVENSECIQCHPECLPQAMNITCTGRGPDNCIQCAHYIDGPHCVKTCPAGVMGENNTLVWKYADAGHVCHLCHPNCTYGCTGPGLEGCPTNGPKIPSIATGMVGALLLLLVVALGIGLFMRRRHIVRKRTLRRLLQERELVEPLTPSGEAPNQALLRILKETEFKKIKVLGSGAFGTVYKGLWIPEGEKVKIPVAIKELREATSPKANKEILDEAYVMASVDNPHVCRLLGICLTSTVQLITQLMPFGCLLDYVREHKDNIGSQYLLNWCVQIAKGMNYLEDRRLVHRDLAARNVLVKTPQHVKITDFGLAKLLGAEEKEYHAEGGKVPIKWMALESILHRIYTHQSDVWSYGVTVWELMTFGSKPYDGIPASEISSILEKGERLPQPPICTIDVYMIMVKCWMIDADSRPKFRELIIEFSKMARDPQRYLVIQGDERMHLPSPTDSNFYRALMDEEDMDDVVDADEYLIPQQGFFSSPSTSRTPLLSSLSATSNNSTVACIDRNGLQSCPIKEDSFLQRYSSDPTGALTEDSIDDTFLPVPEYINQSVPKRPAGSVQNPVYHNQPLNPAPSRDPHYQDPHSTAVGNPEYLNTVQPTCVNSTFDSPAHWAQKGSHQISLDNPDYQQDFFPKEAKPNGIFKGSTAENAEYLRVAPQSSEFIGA
Chain of Epidermal growth factor receptor (Homo sapiens, UniProt P00533, L858R/T790M) (P00533 25-1210 T790M/L858R limits assumed): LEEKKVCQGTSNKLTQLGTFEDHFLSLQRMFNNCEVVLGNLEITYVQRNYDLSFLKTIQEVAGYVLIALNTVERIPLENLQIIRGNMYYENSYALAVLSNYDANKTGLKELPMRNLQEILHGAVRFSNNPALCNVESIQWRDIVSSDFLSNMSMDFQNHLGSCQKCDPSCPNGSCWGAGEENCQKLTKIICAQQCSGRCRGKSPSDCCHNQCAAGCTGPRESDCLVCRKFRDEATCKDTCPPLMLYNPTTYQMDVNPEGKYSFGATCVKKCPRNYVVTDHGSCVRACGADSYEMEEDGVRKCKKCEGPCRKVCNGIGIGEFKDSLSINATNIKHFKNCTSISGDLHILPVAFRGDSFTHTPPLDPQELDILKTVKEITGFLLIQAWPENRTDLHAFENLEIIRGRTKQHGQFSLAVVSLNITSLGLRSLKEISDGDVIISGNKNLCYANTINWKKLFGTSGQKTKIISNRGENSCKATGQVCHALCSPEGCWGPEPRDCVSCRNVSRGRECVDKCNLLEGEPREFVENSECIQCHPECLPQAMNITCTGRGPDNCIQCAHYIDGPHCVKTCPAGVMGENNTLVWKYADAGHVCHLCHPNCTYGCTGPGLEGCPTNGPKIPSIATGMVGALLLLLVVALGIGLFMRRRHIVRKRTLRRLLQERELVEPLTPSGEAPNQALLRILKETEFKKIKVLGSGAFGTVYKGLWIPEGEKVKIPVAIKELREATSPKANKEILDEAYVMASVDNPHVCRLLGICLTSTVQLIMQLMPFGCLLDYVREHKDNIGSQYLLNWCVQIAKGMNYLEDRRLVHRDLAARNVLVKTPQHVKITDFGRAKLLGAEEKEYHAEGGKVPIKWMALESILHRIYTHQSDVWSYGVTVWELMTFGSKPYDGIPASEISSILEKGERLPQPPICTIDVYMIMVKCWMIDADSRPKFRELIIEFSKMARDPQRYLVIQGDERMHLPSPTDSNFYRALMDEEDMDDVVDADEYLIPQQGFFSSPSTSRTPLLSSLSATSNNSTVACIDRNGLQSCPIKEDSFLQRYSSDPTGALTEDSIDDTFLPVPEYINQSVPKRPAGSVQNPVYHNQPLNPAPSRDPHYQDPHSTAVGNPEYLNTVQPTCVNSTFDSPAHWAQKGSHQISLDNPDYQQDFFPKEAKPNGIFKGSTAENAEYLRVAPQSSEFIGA

In data set [1], `CCC(=O)Nc1cccc(Nc2nc(Nc3ccc4c(C)n(C)nc4c3)ncc2Cl)c1` registered an IC50 of 0.0592 µM. This lies in the double-digit nanomolar range.

In data set [2], `C=CC(=O)Nc1cccc(Nc2nc(Nc3ccc(N4CCN(C(C)=O)CC4)cc3)ncc2Cl)c1` returned a pH-dependent lipophilicity (logD) at 6 h of 3.18. The IC50 was determined as 0.0697 µM in data set [3]; 0.0436 µM in data set [1]; 3.47 µM in [5]; 1.07 µM in data set [6]; 0.23 µM in [8]. Besides, the solubility in data set [4] amounted to 13.4 µg. For the same compound, the selectivity ratio in data set [7] came to 4.65.

`C=CC(=O)Nc1cccc(Nc2nc(Nc3ccc4c(C)n(C)nc4c3)ncc2Cl)c1` showed an IC50 in data set [1] of 0.0978 µM.

The compound `COc1cc(N2CCN(C(C)=O)CC2)ccc1Nc1ncc(Cl)c(Nc2cccc(NC(=O)CCl)c2)n1` had a logD at 6 h in data set [2] of 3.67. The IC50 worked out at 0.0568 µM in [3]; 0.0226 µM in data set [1]; 7.05 µM in data set [5]; 12.6 µM in data set [6]; 5.78 µM in data set [8]. For the same compound, in data set [4], the solubility was 8.65 µg. In addition, the Ratio IC50 in [9] came to 28. Moreover, the selectivity ratio in data set [7] was found to be 2.18.

Take `Cn1cc(Nc2ncc(Cl)c(Nc3cccc(NC(=O)CCl)c3)n2)cn1`: the logD at 6 h in data set [2] came to 2.6. Also, the 50% inhibitory concentration (IC50) is 0.0478 µM in data set [3]; 0.0416 µM in data set [1]; 3.7 µM in [5]; 4.3 µM in [6]; 0.911 µM in data set [10]; 2.78 µM in data set [8]. In addition, the solubility in data set [4] is 183 µg. The selectivity ratio in data set [7] stood at 1.54.

`Cc1c2ccc(Nc3ncc(Cl)c(Nc4cccc(NC(=O)CCl)c4)n3)cc2nn1C` had an IC50 in [1] of 0.0789 µM.

Compound `C=CC(=O)Nc1cccc(Nc2nc(Nc3ccc(N4CCN(C(C)=O)CC4)cc3OC)ncc2C(F)(F)F)c1` [ROCILETINIB] had a logD at 6 h in data set [2] of 3.18. Besides, the solubility in data set [4] came out at 221 µg. Also, the IC50 was determined as 0.32 µM in data set [5], 7.39 µM in [6], 0.0043 µM in [10] and 0.2 µM in data set [8].

In turn, `CCC(=O)Nc1cccc(Nc2nc(Nc3ccc4[nH]c(=O)oc4c3)ncc2Cl)c1` had an IC50 in data set [1] of 0.116 µM.

`COc1cc(N2CCN(C(C)=O)CC2)ccc1Nc1ncc(Cl)c(Nc2cccc(NC(=O)/C=C/c3ccccc3)c2)n1` gave an IC50 in data set [1] of 0.058 µM.

Turning to `C=CC(=O)Nc1cccc(Nc2nc(Nc3ccc4[nH]c(=O)oc4c3)ncc2Cl)c1`, the IC50 in data set [1] is 0.0635 µM.

For the compound `C=CC(=O)Nc1cccc(Nc2nc(Nc3cnn(C)c3)ncc2Cl)c1`, in data set [2], the logD at 6 h turned out to be 2.86. The IC50 in data set [3] is 0.0207 µM; in [1], 0.174 µM; in data set [5], 6.39 µM; in data set [6] it was 3.25 µM; in [10], 0.0695 µM; in [8], 0.79 µM. The compound further gave a solubility in data set [4] of 109 µg. The inhibition constant Ki in [11] was found to be 3810 µM. The Kinact in [12] was 6.16 10^-1/s. The selectivity ratio in [7] stood at 4.11.

The compound `Cc1c2ccc(Nc3ncc(Cl)c(Nc4cccc(NC(=O)/C=C/c5ccccc5)c4)n3)cc2nn1C` showed a 50% inhibitory concentration (IC50) in data set [1] of 0.0656 µM. This lies in the double-digit nanomolar range.

`O=C(/C=C/c1ccccc1)Nc1cccc(Nc2nc(Nc3ccc4[nH]c(=O)oc4c3)ncc2Cl)c1`: the IC50 in data set [1] is 0.0767 µM.

For `CC(=O)N1CCN(c2ccc(Nc3ncc(Cl)c(Nc4cccc(NC(=O)CCl)c4)n3)cc2)CC1`, half-maximal inhibition in data set [1] (IC50) required 0.114 µM.

`C=CC(=O)Nc1cc(Nc2nccc(-c3cn(C)c4ccccc34)n2)c(OC)cc1N(C)CCN(C)C` [OSIMERTINIB] returned a logD at 6 h in data set [2] of 3.43. In data set [4], this compound came in with a solubility of 30.1 µg. Also, the IC50 in data set [5] stood at […]; in data set [6] it was 3.65 µM; in [10], 0.0353 µM; in [8], 10.2 µM.

As to `Cn1cc(Nc2ncc(Cl)c(Nc3cccc(NC(=O)/C=C/c4ccccc4)c3)n2)cn1`, the log distribution coefficient (logD) at 6 h in [2] stood at 4.18. The IC50 in data set [3] amounted to 0.0228 µM; in data set [1], 0.0448 µM; in [5] it was 10.5 µM; in data set [6], 3.65 µM; in data set [10] it was 0.008 µM; in data set [8], 1.48 µM. Besides, the solubility in data set [4] is 1.35 µg. Moreover, the selectivity ratio in data set [7] was 2.46.

For `C=CC(=O)Nc1cccc(Nc2nc(Nc3ccc(N4CCN(C(C)=O)CC4)cc3OC)ncc2Cl)c1`, in data set [1], the midpoint of inhibition, the IC50, lay at 0.0876 µM.

The compound `CC(=O)N1CCN(c2ccc(Nc3ncc(Cl)c(Nc4cccc(NC(=O)/C=C/c5ccccc5)c4)n3)cc2)CC1` showed a half-inhibitory concentration (IC50) in data set [1] of 0.0878 µM.

For the compound `CCC(=O)Nc1cccc(Nc2nc(Nc3ccc(N4CCN(C(C)=O)CC4)cc3)ncc2Cl)c1`, in [1], half-maximal inhibition (IC50) required 0.0659 µM.

As for `O=C(CCl)Nc1cccc(Nc2nc(Nc3ccc4[nH]c(=O)oc4c3)ncc2Cl)c1`, the logD at 6 h in data set [2] is 3.51. The IC50 in [3] was 0.0632 µM; in [1] it was 0.0431 µM; in [5] it was 7.49 µM; in data set [6], 7.06 µM; in data set [8], 7.29 µM. This compound also gave a solubility in data set [4] of 15.4 µg. Moreover, in data set [7], the selectivity ratio worked out at 0.96.

In data set [2], `CCC(=O)Nc1cccc(Nc2nc(Nc3cnn(C)c3)ncc2Cl)c1` had a logD at 6 h of 2.67. Also, the IC50 worked out at 0.0189 µM in data set [3]; 0.035 µM in data set [1]; 11.2 µM in data set [5]; 28.3 µM in data set [6]; 0.0317 µM in [10]; 2.77 µM in data set [8]. Further, the solubility in data set [4] was 80.1 µg. In data set [7], the selectivity ratio came out at 10.2.

In the case of `CCC(=O)Nc1cccc(Nc2nc(Nc3ccc(N4CCN(C(C)=O)CC4)cc3OC)ncc2Cl)c1`, the IC50 in [1] turned out to be 0.0629 µM.

For orientation: IC50 means the midpoint of a concentration-inhibition curve. Read a low IC50 as greater potency in that assay. In general, logD refers to the decadic logarithm of the distribution of all forms, ionised or not, between an organic phase and buffer at a given pH. A high value points to a more lipophilic compound. In general, Ki refers to the equilibrium dissociation constant of an inhibitor or competing ligand from its target.
